Read-outs that look alike come from different tables or passages of the source.
Assays:
[1] = molecular target: T1, Rod Light-Activated PDEase (Bos taurus, UniProt P11541+P23439)
T1 sequence (P11541 1-859): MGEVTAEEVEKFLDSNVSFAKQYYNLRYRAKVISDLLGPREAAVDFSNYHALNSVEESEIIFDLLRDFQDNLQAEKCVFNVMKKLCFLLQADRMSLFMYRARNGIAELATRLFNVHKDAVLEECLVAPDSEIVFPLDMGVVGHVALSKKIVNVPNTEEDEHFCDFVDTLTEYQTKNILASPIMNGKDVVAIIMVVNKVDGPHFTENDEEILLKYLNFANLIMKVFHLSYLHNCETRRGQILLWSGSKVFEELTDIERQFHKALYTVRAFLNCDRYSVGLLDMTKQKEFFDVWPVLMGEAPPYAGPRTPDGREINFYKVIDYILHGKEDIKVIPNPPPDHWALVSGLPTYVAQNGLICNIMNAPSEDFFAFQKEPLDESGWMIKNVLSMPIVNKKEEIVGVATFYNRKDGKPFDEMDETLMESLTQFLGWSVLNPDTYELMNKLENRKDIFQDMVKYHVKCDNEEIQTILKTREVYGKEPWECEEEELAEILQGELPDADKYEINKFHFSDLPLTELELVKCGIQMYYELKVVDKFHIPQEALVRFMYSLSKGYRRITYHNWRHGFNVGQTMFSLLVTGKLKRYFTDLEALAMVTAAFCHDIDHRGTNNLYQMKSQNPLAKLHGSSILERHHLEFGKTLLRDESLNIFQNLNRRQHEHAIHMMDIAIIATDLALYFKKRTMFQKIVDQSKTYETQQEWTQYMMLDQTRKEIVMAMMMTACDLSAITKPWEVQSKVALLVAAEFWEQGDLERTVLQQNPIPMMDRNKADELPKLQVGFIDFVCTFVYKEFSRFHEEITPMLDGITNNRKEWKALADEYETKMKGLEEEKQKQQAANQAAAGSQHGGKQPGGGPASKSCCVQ
T1 sequence (P23439 1-853): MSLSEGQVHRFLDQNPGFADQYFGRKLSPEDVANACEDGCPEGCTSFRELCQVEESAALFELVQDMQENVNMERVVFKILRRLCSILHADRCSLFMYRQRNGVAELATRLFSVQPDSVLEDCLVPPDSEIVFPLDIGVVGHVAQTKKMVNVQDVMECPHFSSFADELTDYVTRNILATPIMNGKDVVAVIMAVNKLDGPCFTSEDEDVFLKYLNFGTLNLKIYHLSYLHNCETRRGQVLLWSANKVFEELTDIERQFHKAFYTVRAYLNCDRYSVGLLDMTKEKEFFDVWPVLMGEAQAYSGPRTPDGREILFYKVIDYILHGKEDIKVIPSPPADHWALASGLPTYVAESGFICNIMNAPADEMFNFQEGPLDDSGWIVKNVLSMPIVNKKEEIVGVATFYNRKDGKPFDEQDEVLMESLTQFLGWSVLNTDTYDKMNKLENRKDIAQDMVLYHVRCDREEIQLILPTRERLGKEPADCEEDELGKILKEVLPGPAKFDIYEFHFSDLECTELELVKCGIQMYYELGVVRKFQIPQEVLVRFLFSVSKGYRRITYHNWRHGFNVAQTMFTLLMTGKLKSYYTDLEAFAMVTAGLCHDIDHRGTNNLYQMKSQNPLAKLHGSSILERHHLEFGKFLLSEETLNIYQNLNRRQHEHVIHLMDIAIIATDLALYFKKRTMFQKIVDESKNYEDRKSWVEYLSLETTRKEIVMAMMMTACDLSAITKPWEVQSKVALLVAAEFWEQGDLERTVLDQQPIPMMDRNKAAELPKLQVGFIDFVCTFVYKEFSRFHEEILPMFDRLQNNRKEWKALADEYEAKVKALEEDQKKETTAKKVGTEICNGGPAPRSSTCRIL

[2] = test system: platelet phosphodiesterase; experiment: Inhibition of platelet phosphodiesterase activity (H3-cAMP hydrolysis); type: biochemical; conditions: 5 minutes at 30° C, platelet preparations
Experimental: The IC50 's for 2'-0-(4-benzoyl)benzoyl guanosine 3',5'cyclic monophosphate and 2'-0-(4-benzoyl)benzoyl cyclic adenosine monophosphate were 3 and 10 μM, repsectively. Enzyme activity was assayed by incubation of platelet preparations with H^3 -cAMP for 5 minutes at 30° C. Activity was quenched by boiling the assay tubes for 1 minute. Each sample was run in triplicate. Analysis of H^3 -cAMP was performed according to the procedure of W. J. Thompson, W. L. Terasaki, P. M. Epstein and S. J. Strada, "Assay of Cyclic Nucleotide Phosphodiesterase and Resolution of Multiple Molecular Forms of the Enzyme", Adv. in Cyclic Nucleotide Research, 10, 69-92 (1979).

[3] = molecular target: cGMP PDE; experiment: Inhibition of cGMP phosphodiesterase in rat bladder; type: biochemical; conditions: read-out: IC50, concentration required to cause 50% inhibition of the enzyme
Experimental: (§1) 2'-0-(4-benzoyl)benzoyl guanosine 3',5' cyclic monophosphate was assayed as an inhibitor of the cGMP and cAMP phoosphodiesterases in rat bladder. The inhibition of the two PDEases were assayed as per J. N. Wells, C. E. Baird, Y. J. Wu and J. G. Hardman, Biochem. Biophys. Acta, 384, 430, (1975). Expressed as IC50 's, the concentration required to cause 50% inhibition of the enzynme were as follows: […]

[4] = molecular target: cAMP PDE; experiment: Inhibition of cAMP phosphodiesterase in rat bladder; type: biochemical; conditions: read-out: IC50, concentration required to cause 50% inhibition of the enzyme
Experimental: as §1

[5] = molecular target: Type III cGMP phosphodiesterase; experiment: Lineweaver-Burke analysis of cGMP hydrolysis by toad photoreceptor rod outer segment membranes; type: biochemical
Experimental: FIG. 7 depicts a Lineweaver-Burke analysis of inhibitory effectiveness of 2'-0-(4-benzoyl)benzoyl guanosine 3',5'cyclic monophosphate versus 8-Br-cGMP. The data illustrated are cGMP hydrolysis velocities from toad photoreceptor rod outer segment membranes containing 20 nM Type III cGMP phosphodiesterase in the presence of 100 mM NaCl, 1 mM Tris-HCl, 1 MgCl2,20 μM p[NH]ppG (guanylylimididiphosphate), pH 7.4, and the indicated concentrations of substrate. Open squares indicate control velocities. […] Open circles and open triangles show the effect of 2 μM and 20uM 2'-0-(4-benzoyl)benzoyl guanosine 3',5'cyclic monophosphate respectively (Ki =0.3 μM).

[6] = test system: intraocular pressure; experiment: Intraocular pressure in normal rabbits after topical administration; type: in vivo, rabbit
Excerpt: Non-pigmented, normal (non-water-loaded) rabbits received topical administration to their eyes of 2'-0-(4)-benzoyl benzoyl guanosine 3',5'cyclic monophosphate as prepared according to Example 1.
The mean baseline IOP (intraocular pressure) for the rabbits was 17.5 mm Hg. It should be noted that the data presented in FIG. 1 and FIG. 2 are relative to time zero and normalized relative to the contralateral eye. The contralateral eye received a DMSO control lacking the inhibitor compound. It is believed that this is the most conservative way to represent the data.
Additionally, five rabbits were administered 2'-0-(4-benzoyl)benzoyl guanosine 3',5'cyclic monophosphate (and DMSO) in a sterile saline solution diluted 10- and 100-fold.
FIG. 1 depicts the results of increasing concentrations of 2'-0-(4-benzoyl)benzoyl guanosine 3',5' cyclic monophosphate on the intraocular pressure of normal rabbits. Pressures (±S.E.M) are relative to pressure at time zero and normalized with respect to that of the contralateral eye. Contralateral eyes received solutions containing (DMSO) vehicle without 2'-0-(4-benzoyl)benzoyl guanosine 3',5'cyclic monophosphate. […] Intraocular pressure was measured by applanation tonometry (using an Alcon Applanation Pneumotonograph) after topical application of proparacaine HCl […].

[7] = test system: eye; experiment: Ocular tolerability in rabbits after topical administration; type: in vivo, rabbit
[8] = Solubility in solvents; type: physicochemical; conditions: dmso, organic solvent or mixture; in water, ethanol or methanol and DSMO; read-out: upper limit of solubility
Experimental: The inventive compound favors organic solvents; the upper limit of solubility in water, ethanol or methanol and DSMO is approximately 100 mM. Butanol is also a good solvent, but probably not a very good vehicle.

[9] = Storage stability in DMSO; type: physicochemical; conditions: stored at -20° C
Excerpt: No preservative need be added.

[10] = footnote a: from Zimmerman et al 1985; read-out: Ki for Inhibition; cited from earlier work
[11] = 20 nM enzyme, 100 mM NaCl, 20 μM p[NH]ppG, pH 7.4, Ki calculated from slope/Km ratios, read-out: Ki
[12] = footnote b: interpolated from Pannbacker et al 1972 and Chader et al 1974; read-out: Ki for Inhibition; cited from earlier work

For CCCC(=O)Nc1nc2c(ncn2[C@@H]2O[C@@H]3COP(=O)(O)O[C@H]3[C@H]2O)c(=O)[nH]1 [N^2 -monobutyryl-cGMP], the Ki [1, 10] is given as 258 µM.
In the case of CCCC(=O)Nc1nc2c(ncn2[C@@H]2O[C@@H]3COP(=O)(O)O[C@H]3[C@H]2OC(=O)CCC)c(=O)[nH]1 [N^2,O^2,-dibutyryl-cGMP], the Ki [1, 10] is given as 66 µM.
For Nc1nc2c(ncn2[C@H]2C[C@@H]3OP(=O)(O)OC[C@H]3O2)c(=O)[nH]1 [2'-Deoxy-cGMP], the Ki [1, 10] is listed as 76 µM.
In the case of Nc1nc2c(ncn2[C@@H]2O[C@@H]3COP(O)(=S)O[C@H]3[C@H]2O)c(=O)[nH]1 (some centres unmarked) [(Sp)-cGMP [S]], the Ki [1, 10] is given as 25 µM.
In the case of CC(C)Cn1c(=O)n(C)c(=O)c2[nH]cnc21 [Isobutylmethylxanthine], the Ki ([1]; read-out: Ki for Inhibition; footnote b: interpolated from Pannbacker et al 1972 and Chader et al 1974; cited from earlier work) is given as roughly 100 µM.
With Nc1ncnc2c1ncn2[C@@H]1O[C@@H]2COP(=O)(O)O[C@H]2[C@H]1OC(=O)c1ccc(C(=O)c2ccccc2)cc1 [2'-0-(4-benzoyl) benzoyl-adenosine 3',5' cyclic monophosphate] the IC50 [2] was 10 µM.
In the case of Nc1nc2c(ncn2[C@@H]2O[C@@H]3COP(O)(=S)O[C@H]3[C@H]2O)c(=O)[nH]1 (some centres unmarked) [(Rp)-cGMP [S]], the Ki [1, 10] is listed as 90 µM.
In the case of Nc1nc2c(ncn2[C@@H]2O[C@@H]3COP(=O)(O)O[C@H]3[C@H]2O)c(=O)[nH]1 [cGMP, 3',5'cyclic guanosine monophosphate], the Km ([1]; substrate cGMP; from Zimmerman et al 1985; read-out: Km (printed in column Ki for Inhibition); cited from earlier work) is listed as 0.04 mM.
In the case of CCCC(=O)O[C@@H]1[C@@H]2OP(=O)(O)OC[C@H]2O[C@H]1n1cnc2c(=O)[nH]c(N)nc21 [O^2,-monobutyryl-cGMP], the Ki [1, 10] is given as 18 µM.
Work on Nc1nc2c(ncn2[C@@H]2O[C@@H]3COP(=O)(O)O[C@H]3[C@H]2OC(=O)c2ccc(C(=O)c3ccccc3)cc2)c(=O)[nH]1 [2'-0-(4-benzoyl)benzoylguanosine 3',5'cyclic monophosphate] yielded an IC50 [3] of 0.5 µM, an IC50 [4] of 15.8 µM and a Ki [5, 11] of 0.3 µM. For the same compound, the Ki ([5]; Table 1, rod light-activated PDEase, inventive compound, read-out: Ki for Inhibition) was 0.3 µM, the IC50 [2] was 3 µM and the “effect on IOP” value ([6]; 10-fold diluted material (approximately 3 mM), compared with 35 mM in DMSO) was “about the same effect on IOP”. The “effect on IOP” value ([6]; 100-fold diluted compound (approximately 0.3 mM)) was “essentially no effect”, the conjunctival hyperemia ([7]; compound (and DMSO) diluted ten-fold with saline solution) was “reduced” and the “change in pupil diameter” value ([7]; either eye, any concentration, topical) was “No significant change in pupil diameter”. The conjunctival hyperemia ([7]; full concentration (in straight DMSO)) was “slight conjunctival hyperemia”, the “lid erythema or ciliary injection” value ([7]; topical) was “no lid erythema or ciliary injection were observed” and the solubility [8] was roughly 100 mM. The stability in solution [9] was “does not degrade”.
For Nc1nc(O)c2nc(Br)n([C@@H]3O[C@@H]4COP(=O)(O)O[C@H]4[C@H]3O)c2n1 [Example 8-Br-cGMP, 8-Br-3',5' cyclic guanosine monophosphate, reference compound], the Ki [5, 11] is listed as 6 µM and the Ki [1, 10] is listed as 48 µM.
For COc1ccc(Cc2nccc3cc(OC)c(OC)cc23)cc1OC [Papaverine], the Ki [1, 12] is listed as roughly 50 µM.
In the case of Cn1c(=O)c2[nH]cnc2n(C)c1=O [Theophyline], the Ki [1, 12] is listed as roughly 360 µM.

— US5039797A, “2'-O-(4-benzoyl)benzoyl nucleoside cyclic monophosphate” (Yale University, priority 1989, dated 1991)
